Measured values as given in US20070032513A1, “Quinazoline derivatives” (priority 2003, published 2007).

Legend:
EGFR tyrosine kinase = biological target: T1, EGFR tyrosine kinase (Homo sapiens, UniProt P00533); test: Protein tyrosine kinase phosphorylation assay, Test (a); type: biochemical; conditions: recombinant intracellular fragment, ATP at Km concentration; read-out: IC50 (nM) Test (a) (Inhibition of EGFR tyrosine kinase protein phosphorylation)
T1 construct: Recombinant intracellular fragments of EGFR, erbB2 and erbB4; made in house; host or cells: baculovirus/Sf21 insect cells (cleared lysate used)
T1 sequence (P00533 669-1210 limits assumed): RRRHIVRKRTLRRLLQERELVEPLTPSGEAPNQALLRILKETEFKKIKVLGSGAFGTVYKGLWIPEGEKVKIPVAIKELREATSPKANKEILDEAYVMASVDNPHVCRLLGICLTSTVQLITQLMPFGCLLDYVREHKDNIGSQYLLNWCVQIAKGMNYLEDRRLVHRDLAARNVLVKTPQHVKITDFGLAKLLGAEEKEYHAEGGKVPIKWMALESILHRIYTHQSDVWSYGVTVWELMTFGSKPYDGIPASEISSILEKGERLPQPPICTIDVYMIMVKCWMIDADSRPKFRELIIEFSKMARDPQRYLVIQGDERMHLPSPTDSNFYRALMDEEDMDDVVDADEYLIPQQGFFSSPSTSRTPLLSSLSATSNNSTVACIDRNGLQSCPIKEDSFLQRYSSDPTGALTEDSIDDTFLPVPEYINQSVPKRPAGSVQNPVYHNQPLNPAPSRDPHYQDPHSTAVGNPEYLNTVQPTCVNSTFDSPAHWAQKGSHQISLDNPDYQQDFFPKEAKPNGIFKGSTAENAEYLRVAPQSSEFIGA
Protocol: This test measures the ability of a test compound to inhibit the phosphorylation of a tyrosine containing polypeptide substrate by EGFR, erbB2 or erbB4 tyrosine kinase enzyme.
Recombinant intracellular fragments of EGFR, erbB2 and erbB4 (accession numbers X00588, X03363 and L07868 respectively) were cloned and expressed in the baculovirus/Sf21 system. Lysates were prepared from these cells by treatment with ice-cold lysis buffer (20 mM N-2-hydroxyethylpiperizine-N′-2-ethanesulfonic acid (HEPES) pH7.5, 150 mM NaCl, 10% glycerol, 1% Triton X-100, 1.5 mM MgCl2, 1 mM ethylene glycol-bis(β-aminoethyl ether) N′,N′,N′,N′-tetraacetic acid (EGTA), plus protease inhibitors and then cleared by centrifugation.
Constitutive kinase activity of these recombinant proteins was determined by their ability to phosphorylate a synthetic peptide (made up of a random co-polymer of Glutamic Acid, Alanine and Tyrosine in the ratio of 6:3:1). Specifically, Maxisorb™ 96-well immunoplates were coated with synthetic peptide (0.2 μg of peptide in a 200 μl phosphate buffered saline (PBS) solution and incubated at 4° C. overnight). Plates were washed in 50 mM HEPES pH 7.4 at room temperature to remove any excess unbound synthetic peptide. EGFR or erbB2 activities were assessed by incubation in peptide coated plates for 20 minutes at room temperature in 100 mM HEPES pH 7.4 at room temperature, adenosine trisphosphate (ATP) at Km concentration for the respective enzyme, 10 mM MnCl2, 0.1 mM Na3VO4, 0.2 mM DL-dithiothreitol (DIT), 0.1% Triton X-100 with test compound in DMSO (final concentration of 2.5%). Reactions were terminated by the removal of the liquid components of the assay followed by washing of the plates with PBS-T (phosphate buffered saline with 0.5% Tween 20).
The immobilised phospho-peptide product of the reaction was detected by immunological methods. Firstly, plates were incubated for 90 minutes at room temperature with anti-phosphotyrosine primary antibodies that were raised in the mouse (4G10 from Upstate Biotechnology). Following extensive washing, plates were treated with Horseradish Peroxidase (HRP) conjugated sheep anti-mouse secondary antibody (NXA931 from Amersham) for 60 minutes at room temperature. After further washing, HRP activity in each well of the plate was measured colorimetrically using 22′-Azino-di-[3-ethylbenzthiazoline sulfonate (6)] diammonium salt crystals (ABTS™ from Roche) as a substrate.
Quantification of colour development and thus enzyme activity was achieved by the measurement of absorbance at 405 nm on a Molecular Devices ThermoMax microplate reader. Kinase inhibition for a given compound was expressed as an IC50 value. […] The range of phosphorylation was calculated from the positive (vehicle plus ATP) and negative (vehicle minus ATP) control values.

KB cells = test: EGFR driven KB cell proliferation assay, Test (b); type: cell-based; conditions: Homo sapiens, 96 h, EGF 1 ng/ml, incubation for 4 days, MTT
Protocol: This assay measures the ability of a test compound to inhibit the proliferation of KB cells (human naso-pharangeal carcinoma obtained from the American Type Culture Collection (ATCC)).
KB cells were cultured in Dulbecco's modified Eagle's medium (DMEM) containing 10% foetal calf serum, 2 mM glutamine and non-essential amino acids at 37° C. in a 7.5% CO2 air incubator. Cells were harvested from the stock flasks using Trypsin/ethylaminediaminetetraacetic acid EDTA). Cell density was measured using a haemocytometer and viability was calculated using trypan blue solution before being seeded at a density of 1.25×10^3 cells per well of a 96 well plate in DMEM containing 2.5% charcoal stripped serum, 1 mM glutamine and non-essential amino acids at 37° C. in 7.5% CO2 and allowed to settle for 4 hours.
Following adhesion to the plate, the cells are treated with or without EGF (final concentration of 1 ng/ml) and with or without compound at a range of concentrations in dimethylsulfoxide (DMSO) (0.1% final) before incubation for 4 days. Following the incubation period, cell numbers were determined by addition of 50 μl of 3-(4,5-Dimethylthiazol-2-yl)-2,5-diphenyltetrazolium bromide (MTT) (stock 5 mg/ml) for 2 hours. MIT solution was then tipped off, the plate gently tapped dry and the cells dissolved upon the addition of 100 μl of DMSO.
Absorbance of the solubilised cells was read at 540 nm using a Molecular Devices ThermoMax microplate reader. Inhibition of proliferation was expressed as an IC50 value. […] The range of proliferation was calculated from the positive (vehicle plus EGF) and negative (vehicle minus EGF) control values.

IC50 (EGFR tyrosine kinase)	IC50 (KB cells)	melting point	Compound
217 nM	119 nM	73 to 77 °C	COCC(=O)N1CC[C@@H](Oc2cc3ncnc(Nc4cccc(Cl)c4F)c3cc2OC)C1 [Example 5, N-(3-Chloro-2-fluorophenyl)-6-methoxy-7-{[(3R)-1-(methoxyacetyl)pyrrolidin-3-yl]oxy}quinazolin-4-amine]
41 nM	397 nM		COc1cc2c(Nc3cccc(Cl)c3F)ncnc2cc1OC1CCN(C(=O)C2CCC(=O)N2)CC1 (stereo not drawn) [6[5], 5-{[4-({4-[3-chloro-2-fluoroanilino]-6-methoxyquinazolin-7-yl}oxy)piperidin-1-yl]carbonyl}pyrrolidin-2-one]
8 nM	48 nM		COc1cc2c(Nc3cccc(Cl)c3F)ncnc2cc1OC1CN(C(=O)[C@@H](C)O)C1 [Example 4, (2R)-1-[3-({4-[3-Chloro-2-fluoroanilino]-6-methoxyquinazolin-7-yl}oxy)azetidin-1-yl]-1-oxopropan-2-ol]
17 nM	71 nM		COc1cc2c(Nc3cccc(Cl)c3F)ncnc2cc1OC1CN(C(=O)[C@H](C)O)C1 [Example 3]
